Tests used:
[1] = tested on: NDM-1 Enterobacter cloacae; assay: Individual metabolite inhibition assay; assay type: cell-based; details: LB pH 6.5, 16 hours anaerobic
Protocol: (§1) New Delhi Metallo-β-lactamase 1 (NDM-1) Escherichia coli, NDM-1 Klebsiella pneumoniae, and NDM-1 Enterobacter cloacae were isolated from patients with intestinal CRE colonisation from the Imperial College Healthcare NHS Trust via rectal swab (REC ref. 19/LO/0112). The species were assigned by matrix assisted laser desorption ionization-time of flight (MALDI-TOF) mass spectrometry and later confirmed with 16S rRNA gene sequencing. CRE status was determined using X-pert Carba-R PCR detection (Cepheid, Sunnyvale, CA, USA), (Otter, J. A. et al. Detecting carbapenemase-producing Enterobacterales (CPE): an evaluation of an enhanced CPE infection control and screening programme in acute care. J Antimicrob Chemother 75, 2670-2676 (2020)).
(§2) Each metabolite was tested individually in an inhibition assay against each CRE isolate. Each metabolite was tested at three concentrations: the low, average, and high concentrations that were measured in healthy faeces (from Table 1). LB was supplemented with each metabolite (at the three different concentrations) and compared to a no metabolite control. […] Overnight cultures of each CRE isolate were inoculated at 10^3 CFU/ml. Cultures were incubated anaerobically for 16 hours at 37° C. Growth was measured at OD600 after 16 hours of incubation. Growth of the CRE isolate in the presence of each metabolite was compared to the no metabolite control using a one-way ANOVA followed by Dunn's multiple comparison test.

NDM-1 Escherichia coli [2] = assay: Individual metabolite inhibition assay; assay type: cell-based; details: LB pH 6.5, 16 hours anaerobic
Protocol: as §1, §2

[3] = tested on: NDM-1 Klebsiella pneumoniae; assay: Individual metabolite inhibition assay; assay type: cell-based; details: LB pH 6.5, 16 hours anaerobic
Protocol: as §1, §2

[4] = tested on: NDM-1 Enterobacter cloacae; assay: Carbon utilisation assay; assay type: cell-based; details: anaerobic; M9 minimal medium, 0.5% (w/v) carbon source
Protocol: as §1
(§3) Growth of CRE isolates on sole carbon or nitrogen sources was tested by inoculating each CRE isolate into a minimal medium supplemented with the nutrient of interest. First, CRE isolates were passaged from frozen glycerol stocks on Reasoner's 2A agar (R2A) plates. Cells were then suspended in M9 minimal media to a turbidity of 42% using a Turbidimeter (Biolog Inc.), then diluted a further 1 in 6 to inoculate the carbon or nitrogen utilisation assays. M9 minimal media contained the following (at final concentrations): 22 mM KH2PO4, 42 mM Na2HPO4, 9 mM NaCl, 0.49 mM MgSO4·7H2O, 0.09 mM CaCl2), 0.011 mM FeSO4·7H2O. For the carbon assays the M9 minimal medium was also supplemented with 0.1% (w/v) NH4Cl (as the nitrogen source) and the carbon sources were individually tested at 0.5% (w/v) concentration. For the nitrogen assays the M9 minimal medium was also supplemented with 0.5% (w/v) glucose (as the carbon source) and the nitrogen sources were individually tested at 0.1% (w/v) concentration. Cultures were incubated anaerobically and aerobically in a plate reader and OD600 readings were collected every 15 minutes for 24 hours.
(§4) Growth curves were analysed in Python (v3.6.5) using the AMiGA software (Midani, F. S., Collins, J. & Britton, R. A. AMiGA: Software for Automated Analysis of Microbial Growth Assays. mSystems 6, e0050821 (2021)). Growth of each isolate was measured with 6 wells from 2-3 independent experiments. Growth curves were normalised to the no substrate control using the subtraction method. AMiGA performed Gaussian Process regression to test differential growth between the substrate and the no substrate control. The functional difference in the OD (and its credible interval) was also computed between the substrate and the no substrate control.

NDM-1 Escherichia coli [5] = assay: Carbon utilisation assay; assay type: cell-based; details: M9 minimal medium, 0.5% (w/v) carbon source
Protocol: as §1, §3, §4

[6] = tested on: NDM-1 Klebsiella pneumoniae; assay: Carbon utilisation assay; assay type: cell-based; details: M9 minimal medium, 0.5% (w/v) carbon source
Protocol: as §1, §3, §4

[7] = tested on: vancomycin-resistant E. faecalis; assay: VRE nutrient utilization protocol: carbon sources; assay type: cell-based, Enterococcus faecalis; details: aerobic; VRE minimal medium
Protocol: (§5) VRE minimal media consists of potassium phosphate monobasic (4 g/L), potassium phosphate dibasic (14 g/L), sodium citrate (1 g/L), magnesium sulphate (0.2 g/L), ammonium sulphate (2 g/L), adenosine (0.04 g/L), thymine (0.04 g/L), Kao and Michayluk vitamin solution [Sigma, K3129, 50× Stock](5×), glucose (1 g/L) and amino acid solution [Sigma, R7131, RPMI-1640, 50×](25×). If the study was performed under anaerobic conditions, fumarate (5.2 g/L) was added to increase growth of VRE strains. Carbon-free minimal media was prepared by leaving out glucose while nitrogen-free minimal media was prepared without the amino acid solution. Media was filter sterilized with a 0.22 micron filter and used immediately aerobically or degassed overnight if used anaerobically.
(§6) VRE strains were grown on R2A overnight before the cells were suspended in 0.9% saline to an OD of 0.38 (λ=595 nm). A 10% dilution of the cell suspension was prepared using VRE minimal media to achieve a final well OD of […] (λ=595 nm) greater than the sterile media OD. Both carbon and nitrogen source utilization were evaluated by adding the inoculated media and a filter-sterilised nutrient source solution into a well in a 1:1 ration to a final volume of 100 μL in aerobic tests and 200 μL in anaerobic tests. Carbon sources were tested individually and compared to a carbon-free control. To test nitrogen source utilization, a nitrogen source solution was prepared containing L-alanine (2 g/L), L-arginine (2.5 g/L, L-asparagine (0.71 g/L), L-aspartate (0.25 g/L), L-cysteine (0.625 g/L), L-glutamate (0.25 g/L), L-Glycine (0.125 g/L), L-histidine (0.1875 g/L), L-isoleucine (0.625 g/L), L-leucine (0.625 g/L), L-lysine HCl (0.5 g/L), L-methionine (0.1875 g/L), L-phenylalanine (0.1875 g/L), L-proline (0.25 g/L), L-serine (0.375 g/L), L-threonine (0.25 g/L), L-tryptophan (0.0625 g/L), L-tyrosine (0.29 g/L), L-valine (0.25 g/L), N-acetylglucosamine (2 g/L), and uracil (2.5 g/L). To test the strains' ability to utilize individual nitrogen sources, separate solutions were prepared eliminating one nitrogen source each. The change in growth compared to the complete nitrogen source solution control was used to determine nitrogen utilization. All carbon and nitrogen sources were tested in a technical triplicate for each biological replicate. Aerobic plates were incubated with a plate seal while anaerobic plates were not. The aerobic plate reader was set to read the plate (λ=595 nm, 37° C., 22 flashes per well, orbital shaking of 100 rpm for 15 s prior to each read) every 15 minutes for 24 hours. The anaerobic plate reader read the plate (λ=595 nm, 37° C., stationary) every 15 minutes for 24 hours.

[8] = tested on: vancomycin-resistant E. faecium; assay: VRE nutrient utilization protocol: carbon sources; assay type: cell-based, Enterococcus faecium; details: aerobic; VRE minimal medium
Protocol: as §5, §6

[9] = tested on: NDM-1 Enterobacter cloacae; assay: Nitrogen utilisation assay; assay type: cell-based; details: anaerobic; M9 minimal medium with glucose, 0.1% (w/v) nitrogen source
Protocol: as §1, §3, §4

NDM-1 Escherichia coli [10] = assay: Nitrogen utilisation assay; assay type: cell-based; details: anaerobic; M9 minimal medium with glucose, 0.1% (w/v) nitrogen source
Protocol: as §1, §3, §4

[11] = tested on: NDM-1 Klebsiella pneumoniae; assay: Nitrogen utilisation assay; assay type: cell-based; details: M9 minimal medium with glucose, 0.1% (w/v) nitrogen source
Protocol: as §1, §3, §4

NDM-1 Escherichia coli [12] = assay: Nutrient preference assay (nutrient mixture); assay type: cell-based; details: aerobic; M9 with […] of each nutrient, up to 24 hours
Protocol: as §1
CRE isolates were passaged once from frozen glycerol stocks on R2A plates. Cells were suspended in M9 minimal media to a turbidity of 42% using a Turbidimeter (Biolog Inc.), then diluted 1 in 6 to inoculate the nutrient preference assays. M9 minimal media was supplemented with 0.015% of each of the following: L-arabinose, D-fructose, L-fucose, D-galactose, D-glucose, D-mannose, D-ribose, D-xylose, N-acetylglucosamine, D-maltose, sucrose, D-trehalose, L-alanine, L-arginine, L-aspartate, L-glutamate, L-glycine, L-isoleucine, L-leucine, L-lysine, L-methionine, L-phenylalanine, L-proline, L-threonine, L-tryptophan, L-tyrosine, L-valine, uracil, and succinate. Cultures were incubated anaerobically and aerobically in a plate reader and OD600 readings were collected every 15 minutes for 24 hours. Cultures were also incubated anaerobically and aerobically for 24 h and samples were collected at 0, 4, 8, and 24 hours post-inoculation for 1H-NMR spectroscopy. Changes in nutrients and metabolites by CRE isolates was compared to the sterile media control over time using a two-way mixed ANOVA followed by pairwise comparisons with Bonferroni correction. […]

[13] = at average and high concentrations (Table 1)
[14] = at low, average, and high concentrations (Table 1)

Row | SMILES | K. pneumoniae growth (OD600) with individual metabolite [3, 13] | Use as sole carbon source to support E. cloacae growth [4] | Use as sole carbon source to support E. coli growth (NDM-1 Escherichia coli [5]; anaerobic) | Use as sole carbon source to support K. pneumoniae growth ([6]; anaerobic) | Use as sole carbon source to support E. faecalis growth [7] | Use as sole carbon source to support E. faecium growth [8] | further results
1 | CCC(=O)O [propionate] | inhibited | – | – | – | – | – | E. cloacae growth (OD600) with individual metabolite [1, 13]: inhibited; E. coli growth (OD600) with individual metabolite (NDM-1 Escherichia coli [2]; [13]): inhibited
2 | OC[C@H]1O[C@H](O[C@H]2O[C@H](CO)[C@@H](O)[C@H](O)[C@H]2O)[C@H](O)[C@@H](O)[C@@H]1O [trehalose, D-trehalose] | – | could use | could use | could use | could use | could use | –
3 | O=C[C@H](O)[C@@H](O)[C@@H](O)[C@H](O)CO [galactose, D-galactose] | – | could use | could use | could use | could use | could use | –
4 | CC(C)C(=O)O [isobutyrate] | inhibited | – | – | – | – | – | E. cloacae growth (OD600) with individual metabolite [1, 13]: inhibited
5 | CC(=O)N[C@H]1C(O)O[C@H](CO)[C@@H](O)[C@@H]1O (stereo partly shown) [N-acetylglucosamine] | – | could use | could use | could use | could use | could use | Use as sole nitrogen source to support E. cloacae growth [9]: could use; Use as sole nitrogen source to support E. coli growth (NDM-1 Escherichia coli [10]): could use; Use as sole nitrogen source to support K. pneumoniae growth ([11]; aerobic): not able to use; Use as sole nitrogen source to support K. pneumoniae growth ([11]; anaerobic): could use
6 | CCO [ethanol] | – | – | – | – | – | – | E. cloacae growth (OD600) with individual metabolite ([1]; at the high concentration (Table 1)): inhibited; E. coli growth (OD600) with individual metabolite (NDM-1 Escherichia coli [2]; [13]): inhibited
7 | CCCC(=O)O [butyrate] | – | – | – | – | – | – | E. cloacae growth (OD600) with individual metabolite [1, 14]: inhibited; E. coli growth (OD600) with individual metabolite (NDM-1 Escherichia coli [2]; at high concentrations (Table 1)): inhibited; K. pneumoniae growth (OD600) with individual metabolite [3, 14]: inhibited
8 | CCCCC(=O)O [valerate] | inhibited | – | – | – | – | – | E. cloacae growth (OD600) with individual metabolite [1, 14]: inhibited; E. coli growth (OD600) with individual metabolite (NDM-1 Escherichia coli [2]; [13]): inhibited
9 | OC[C@H]1O[C@@](CO)(O[C@H]2O[C@H](CO)[C@@H](O)[C@H](O)[C@H]2O)[C@@H](O)[C@@H]1O [sucrose] | – | could use | – | could use | could use | – | Use as sole carbon source to support E. coli growth (NDM-1 Escherichia coli [5]; aerobic): able to grow; Utilisation of nutrient by E. coli from nutrient mixture (1H-NMR) (NDM-1 Escherichia coli [12]): moderate utilisation
10 | O=C(CO)[C@@H](O)[C@H](O)[C@H](O)CO [fructose, D-fructose] | – | could use | could use | could use | could use | could use | –
11 | O=C[C@H](O)[C@H](O)[C@H](O)CO [ribose, D-ribose] | – | could use | – | – | could use | could use | Use as sole carbon source to support E. coli growth (NDM-1 Escherichia coli [5]; aerobic): able to grow; Use as sole carbon source to support K. pneumoniae growth ([6]; aerobic): able to grow
12 | CC(=O)O [acetate] | inhibited | – | – | – | – | – | E. cloacae growth (OD600) with individual metabolite [1, 13]: inhibited; E. coli growth (OD600) with individual metabolite (NDM-1 Escherichia coli [2]; [14]): inhibited
13 | OC[C@H]1O[C@H](O[C@H]2[C@H](O)[C@@H](O)[C@H](O)O[C@@H]2CO)[C@H](O)[C@@H](O)[C@@H]1O [maltose, D-maltose] | – | could use | – | could use | could use | could use | Use as sole carbon source to support E. coli growth (NDM-1 Escherichia coli [5]; aerobic): able to grow

From patent US20260183350A1, “ANTIBIOTIC-RESISTANT BACTERIA” (priority 2022, published 2026)
